Data set [1] deals with carrageenan-induced rat paw edema. Put plainly: Carrageenan-induced rat paw edema assay. The format is in vivo. The following applies: for Edema thickness (mm) ± SEM: n = 4. As to the method:
Pretreatment of rats with compounds 7a–k, 8a–c, and 9a–c before injection with carrageenan in rat paw which induces inflammation and then the percentage of paw edema reduction was measured after certain hours according to previously reported procedures.

A further data set concerns human recombinant COX-2. Put plainly: In vitro COX inhibition colorimetric assay. The following applies: COX-1 IC50/COX-2 IC50. It counts as biochemical.
The test system of data set [2] is methicillin-resistant Staphylococcus aureus (ATCC 43300). Put plainly: Antimicrobial screening (CO-ADD), growth inhibition at single concentration. The following applies: ATCC 43300 / MRSA, at 32 µg/mL concentration, read-out: growth inhibition % Sa (MRSA). The format is cell-based. As for the experimental part: (§1) The antimicrobial study was performed by CO-ADD (The Community for Antimicrobial Drug Discovery), funded by the Wellcome Trust (UK) and The University of Queensland (Australia). Evaluation of all synthesized compounds for their antimicrobial activities was done against five pathogenic bacteria, methicillin-resistant Staphylococcus aureus (ATCC 43300) as Gram-positive bacteria, Escherichia coli (ATCC 25922), Klebsiella pneumonia (ATCC 700603), Acinetobacter baumannii (ATCC 19606) and Pseudomonas aeruginosa (ATCC 27853) as Gram-negative bacteria and antifungal activity against two pathogenic fungal strains Candida albicans (ATCC 90028) and Cryptococcus neoformans var. grubii (H99; ATCC 208821) (Table 1).

Data set [3] relates to Acinetobacter baumannii (ATCC 19606). The data set is described as above. It counts as cell-based. The following applies: ATCC19606, at 32 µg/mL concentration, read-out: growth inhibition % Ab (A. baumannii). As for the experimental part:
as §1

For data set [4], the system named is Klebsiella pneumonia (ATCC 700603). The description is as above. The format is cell-based. The following applies: Klebsiella pneumoniae, ATCC700603; at 32 µg/mL concentration; read-out: growth inhibition % Kp (K. pneumoniae). As to the method: as §1
A further data set deals with T1, Ovine COX-1 (Ovis aries, UniProt P05979).
T1 construct: purchased Cayman Chemical, Ann Arbor, MI, USA 760111
T1 sequence (P05979 25-600): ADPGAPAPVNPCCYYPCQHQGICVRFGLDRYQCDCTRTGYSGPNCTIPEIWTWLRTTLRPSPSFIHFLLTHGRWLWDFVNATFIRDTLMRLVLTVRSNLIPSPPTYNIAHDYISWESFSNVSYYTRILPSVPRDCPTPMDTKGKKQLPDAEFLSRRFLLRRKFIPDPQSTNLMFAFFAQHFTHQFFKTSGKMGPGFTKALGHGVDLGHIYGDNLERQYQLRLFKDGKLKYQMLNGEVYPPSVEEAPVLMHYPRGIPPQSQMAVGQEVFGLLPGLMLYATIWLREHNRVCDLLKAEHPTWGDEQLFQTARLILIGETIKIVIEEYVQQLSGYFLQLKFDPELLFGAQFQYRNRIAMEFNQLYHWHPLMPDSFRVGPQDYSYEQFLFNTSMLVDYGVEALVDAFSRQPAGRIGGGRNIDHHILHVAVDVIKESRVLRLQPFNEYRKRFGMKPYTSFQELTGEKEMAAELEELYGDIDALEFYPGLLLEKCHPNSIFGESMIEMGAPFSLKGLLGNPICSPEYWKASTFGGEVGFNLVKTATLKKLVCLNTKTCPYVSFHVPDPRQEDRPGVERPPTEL
Put plainly: In vitro COX inhibition colorimetric assay. It counts as biochemical.

Data set [5] relates to Candida albicans (ATCC 90028). Put plainly: Antifungal screening (CO-ADD), growth inhibition at single concentration. It counts as cell-based. The following applies: ATCC90028, at 32 µg/mL concentration, read-out: growth inhibition % Ca (C. albicans). As for the experimental part:
as §1

In the case of `Cc1ccc(-c2cc(C(F)(F)F)nn2-c2ccc(S(N)(=O)=O)cc2)cc1` [Celecoxib, celecoxib, reference compound], the Edema inhibition % in data set [1] (1 h) amounted to 68.9%; in data set [1] (3 h), 95.5%; in data set [1] (6 h), 94.7%. For the same compound, the “Edema thickness (mm) ± SEM” value in data set [1] (1 h) turned out to be 0.810 ± 0.074 mm; in data set [1] (3 h), 0.100 ± 0.009 mm; in data set [1] (6 h), 0.100 ± 0.005 mm.
As for `Cc1ccc2[nH]c(-c3ccc(S(C)(=O)=O)cc3)c(/C=N/Nc3ccc(S(C)(=O)=O)cc3)c2c1` [Compound 7d, 5-Methyl-2-(4-(methylsulfonyl)phenyl)-3-((2-(4-(methylsulfonyl)phenyl) hydraz-ono)methyl)-1H-indole], the melting point – broadly, the temperature of the solid-liquid transition – lay in the range of 262 to 264 °C. Moreover, the “Selectivity index (SI)” value with human recombinant COX-2 is 69.33. In data set [1] (1 h), the Edema inhibition % is on record as 51.6% and the “Edema thickness (mm) ± SEM” value is listed as 1.270 ± 0.015 mm. Also, in data set [1] (3 h), the Edema inhibition % came to 77.5% and the “Edema thickness (mm) ± SEM” value was determined as 0.502 ± 0.044 mm. In addition, in data set [1] (6 h), the Edema inhibition % is 78.6% and the “Edema thickness (mm) ± SEM” value was 0.405 ± 0.018 mm. Further, the inhibition (usually the drop in the measured response relative to a control, in per cent) at 32 µg/mL in data set [2] amounted to 15.6%. Further, the inhibition at 32 µg/mL in data set [3] was determined as 35%. Besides, the inhibition at 32 µg/mL in data set [4] came to 4.86%. Besides, at Ovine COX-1, the 50% inhibitory concentration (IC50) – broadly, the concentration that inhibits the measured activity by half – amounted to 10.4 µM. In addition, in data set [5], the inhibition at 32 µg/mL worked out at 2.54%.
The compound `Cc1ccc2[nH]c(-c3ccc(S(C)(=O)=O)cc3)c(/C=N/Nc3ccc(S(N)(=O)=O)cc3)c2c1` [Compound 7e, 4-(2-((5-Methyl-2-(4-(methylsulfonyl)phenyl)-1H-indol-3-yl)methylene) hydrazine-yl) benzenesulfonamide] had a melting point of 186 to 188 °C. Moreover, the “Selectivity index (SI)” value with human recombinant COX-2 is on record as 31.29. In data set [1] (1 h), the Edema inhibition % is on record as 53.9% and the “Edema thickness (mm) ± SEM” value was 1.209 ± 0.11 mm. In data set [1] (3 h), the Edema inhibition % came out at 71.1% and the “Edema thickness (mm) ± SEM” value is 0.645 ± 0.01 mm. Besides, in data set [1] (6 h), the Edema inhibition % amounted to 79.9% and the “Edema thickness (mm) ± SEM” value is reported as 0.381 ± 0.007 mm. For the same compound, in data set [2], the inhibition at 32 µg/mL was 7.58%. Further, the inhibition at 32 µg/mL in data set [3] was found to be 43.6%. Further, the IC50 on Ovine COX-1 amounted to 9.7 µM. For the same compound, the inhibition at 32 µg/mL in data set [5] was found to be 28.7%.
Compound `Cc1ccc2[nH]c(-c3ccc(S(C)(=O)=O)cc3)c(C=NNc3ccc(F)cc3)c2c1` [Compound 7f, 3-((2-(4-Fluorophenyl)hydrazono)methyl)-5-methyl-2-(4-(methylsulfonyl)phenyl)-1H-indole] came in with a melting point of 159 to 161 °C. In addition, the “Selectivity index (SI)” value in the data set on human recombinant COX-2 is 57.23. In data set [1] (1 h), the Edema inhibition % was found to be 60.5% and the “Edema thickness (mm) ± SEM” value is 1.036 ± 0.009 mm. Also, in data set [1] (3 h), the Edema inhibition % turned out to be 72.7% and the “Edema thickness (mm) ± SEM” value is recorded as 0.609 ± 0.03 mm. Also, in data set [1] (6 h), the Edema inhibition % is reported as 79.2% and the “Edema thickness (mm) ± SEM” value worked out at 0.394 ± 0.01 mm. Moreover, the inhibition at 32 µg/mL in data set [2] worked out at 8.33%. The inhibition at 32 µg/mL in data set [3] was 66.7%. In addition, the inhibition at 32 µg/mL in data set [4] was found to be 8.05%. For the same compound, at Ovine COX-1, the IC50 is 9.73 µM. The inhibition at 32 µg/mL in data set [5] turned out to be 3.5%.
Compound `CS(=O)(=O)c1ccc(-c2[nH]c3ccc(F)cc3c2C=NNc2ccc(F)cc2)cc1` [Compound 7j, 5-Fluoro-3-((2-(4-fluorophenyl)hydrazono)methyl)-2-(4-(methylsulfonyl)phenyl)-1H-indole] had a melting point of 200 to 202 °C. The “Selectivity index (SI)” value in the data set on human recombinant COX-2 is recorded as 98.18. Further, in data set [1] (1 h), the Edema inhibition % is 64.3% and the “Edema thickness (mm) ± SEM” value was 0.936 ± 0.064 mm. Further, in data set [1] (3 h), the Edema inhibition % is given as 78.6% and the “Edema thickness (mm) ± SEM” value is listed as 0.477 ± 0.027 mm. Moreover, in data set [1] (6 h), the Edema inhibition % came out at 71% and the “Edema thickness (mm) ± SEM” value came out at 0.549 ± 0.013 mm. In addition, in data set [2], the inhibition at 32 µg/mL turned out to be 30.6%. For the same compound, the inhibition at 32 µg/mL in data set [3] came to 46.2%. The inhibition at 32 µg/mL in data set [4] came out at 12.3%. Besides, half-maximal inhibition on Ovine COX-1 (IC50) required 10.8 µM. Besides, the inhibition at 32 µg/mL in data set [5] turned out to be 1.91%.
Regarding `CS(=O)(=O)c1ccc(-c2[nH]c3ccccc3c2-c2nc3cc(Cl)ccc3[nH]2)cc1` [Compound 8a, 5-Chloro-2-(2-(4-(methylsulfonyl)phenyl)-1H-indol-3-yl)-1H-benzo[d]imidazole], the melting point fell in the range of 210 to 212 °C. Moreover, the “Selectivity index (SI)” value with human recombinant COX-2 stood at 81.84. In addition, in data set [1] (1 h), the Edema inhibition % is recorded as 52.5% and the “Edema thickness (mm) ± SEM” value amounted to 1.246 ± 0.076 mm. Further, in data set [1] (3 h), the Edema inhibition % is 58% and the “Edema thickness (mm) ± SEM” value is on record as 0.937 ± 0.046 mm. Moreover, in data set [1] (6 h), the Edema inhibition % is on record as 56.4% and the “Edema thickness (mm) ± SEM” value worked out at 0.826 ± 0.078 mm. Also, the inhibition at 32 µg/mL in data set [2] amounted to 13.6%. This compound returned an IC50 on Ovine COX-1 of 10.6 µM. Moreover, the inhibition at 32 µg/mL in data set [5] was 7.71%.
Compound `Cc1ccc2[nH]c(-c3ccc(S(C)(=O)=O)cc3)c(-c3nc4cc(Cl)ccc4[nH]3)c2c1` [Compound 8c, 5-Chloro-2-(5-methyl-2-(4-(methylsulfonyl)phenyl)-1H-indol-3-yl)-1H-benzo[d]imidazole] displayed a melting point of 217 to 219 °C. In addition, the “Selectivity index (SI)” value in the data set on human recombinant COX-2 was 93.58. For the same compound, in data set [1] (1 h), the Edema inhibition % was 67.9% and the “Edema thickness (mm) ± SEM” value is on record as 0.842 ± 0.062 mm. In data set [1] (3 h), the Edema inhibition % is 71.9% and the “Edema thickness (mm) ± SEM” value was found to be 0.627 ± 0.05 mm. Moreover, in data set [1] (6 h), the Edema inhibition % came out at 74.2% and the “Edema thickness (mm) ± SEM” value is given as 0.489 ± 0.032 mm. In addition, in data set [2], the inhibition at 32 µg/mL came to 4.62%. Also, it took 11.2 µM to reach half-maximal inhibition against Ovine COX-1 (IC50). Moreover, in data set [5], the inhibition at 32 µg/mL was found to be 1.65%.
For `Cc1ccc2[nH]c(-c3ccc(S(C)(=O)=O)cc3)c(C=NO)c2c1` [Compound 9c, 5-Methyl-2-(4-(methylsulfonyl)phenyl)-1H-indole-3-carbaldehyde oxime], the melting point is 212 to 214 °C. Moreover, the “Selectivity index (SI)” value in the data set with human recombinant COX-2 is recorded as 34.33. Further, the Edema inhibition % in data set [1] (1 h) was found to be 55.2%. Moreover, in data set [1] (3 h), the Edema inhibition % worked out at 68.6% and the “Edema thickness (mm) ± SEM” value came out at 0.435 ± 0.033 mm. Further, in data set [1] (6 h), the Edema inhibition % is recorded as 61.7% and the “Edema thickness (mm) ± SEM” value is listed as 0.504 ± 0.009 mm. In addition, the inhibition at 32 µg/mL in data set [3] turned out to be 33.7%. In addition, the inhibition at 32 µg/mL in data set [4] amounted to 1.19%. The compound also came in with an IC50 against Ovine COX-1 of 8.24 µM. Further, in data set [5], the inhibition at 32 µg/mL is 4.88%.
As for `COc1ccc2c(c1)c(CC(=O)O)c(C)n2C(=O)c1ccc(Cl)cc1` [Indomethacin, indomethacin, reference compound], the results for the Edema inhibition % in data set [1] (1 h), in data set [1] (3 h) and in data set [1] (6 h) were 70.7%, 96% and 96.6%, respectively. In addition, the “Edema thickness (mm) ± SEM” value in data set [1] (1 h) is recorded as 0.768 ± 0.050 mm; in data set [1] (3 h) it was 0.075 ± 0.007 mm; in data set [1] (6 h), 0.075 ± 0.004 mm.

Values taken from article PMC7106896, “Synthesis and biological evaluation of 2-(4-methylsulfonyl phenyl) indole derivatives: multi-target compounds with dual antimicrobial and anti-inflammatory activities” (BMC Chemistry, 2020).
